Laboratory results taken from patent US20220089592A1, “IMIDAZO[1,2-A]PYRIDINYL DERIVATIVES AS IRAK4 INHIBITORS” (priority 2019, published 2022).

How the values were obtained:
IRAK4 [1] = target: T1, IRAK4 (Homo sapiens, UniProt Q9NWZ3); experiment: 2-hour 10 μM ATP Biochemical Assay (MesoScale Detection format; IRAK4 phosphorylation of biotin labeled IRAK1 activation loop peptide); settings: IRAK4 MSD BIOCHEMICAL (10 μM ATP) IC50 (μM), 1 nM IRAK4, 2 hours
T1 sequence (Q9NWZ3 1-460): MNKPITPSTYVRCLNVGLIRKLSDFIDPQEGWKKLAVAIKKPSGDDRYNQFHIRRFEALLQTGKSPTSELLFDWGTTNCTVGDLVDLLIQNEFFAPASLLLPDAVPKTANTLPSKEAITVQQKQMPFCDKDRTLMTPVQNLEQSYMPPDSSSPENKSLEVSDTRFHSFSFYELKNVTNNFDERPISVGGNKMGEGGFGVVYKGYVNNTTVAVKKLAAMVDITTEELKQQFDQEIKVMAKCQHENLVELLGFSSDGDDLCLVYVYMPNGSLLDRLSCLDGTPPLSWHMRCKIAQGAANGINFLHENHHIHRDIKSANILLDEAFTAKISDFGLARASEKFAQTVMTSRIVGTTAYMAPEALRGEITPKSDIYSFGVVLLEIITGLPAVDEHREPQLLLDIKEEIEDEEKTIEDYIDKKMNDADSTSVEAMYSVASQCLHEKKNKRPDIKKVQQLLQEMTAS
Procedure, shortened: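 Electrochemiluminescent MSD readout: after streptavidin capture, phosphothreonine on the biotin-labelled IRAK1 activation-loop peptide detected by rabbit antibody and Sulfo-Tag secondary. Phosphorylation ran 2 h with 10 μM ATP before EDTA quench.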

IRAK4 [2] = target: T1, IRAK4; experiment: 2-hour 1 mM ATP IRAK4 Biochemical assay (as above, but with 100 pM IRAK4 and 1 mM ATP); settings: IRAK4 MSD BIOCHEMICAL (1 mM ATP) IC50 (μM), 100 pM IRAK4, 2 hours
Procedure, shortened: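 MSD electrochemiluminescence read-out: biotinylated peptide product bound to streptavidin plates, probed with anti-P-Thr rabbit antibody and Sulfo-Tag goat anti-rabbit. Kinase reaction used 1 mM ATP and 100 pM IRAK4 over 2 hours before EDTA quench.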

Structure (SMILES) | IC50 (IRAK4 [1]) | IC50 (IRAK4 [2])
CCOc1cc2nc(C3CN(C(C)=O)C3)cn2cc1NC(=O)c1cccc(C(F)(F)F)n1 [Example 68, N-(2-(1-acetylazetidin-3-yl)-7-ethoxyimidazo[1,2-a]pyridin-6-yl)-6-(trifluoromethyl)picolinamide] | 0.001 µM | 0.001 µM
CCOc1cc2nc(C3CCN(C(C)=O)C3)cn2cc1NC(=O)c1cccc(C(F)(F)F)n1 (stereo not shown) [Example 69, N-(2-(1-acetylpyrrolidin-3-yl)-7-ethoxyimidazo[1,2-a]pyridin-6-yl)-6-(trifluoromethyl)picolinamide] | 0.001 µM | 0.001 µM
CCOc1cc2nc(C3CCN(C(C)=O)CC3)cn2cc1NC(=O)c1cccc(C(F)(F)F)n1 [Example 72, N-(2-(1-acetylpiperidin-4-yl)-7-ethoxyimidazo[1,2-a]pyridin-6-yl)-6-(trifluoromethyl)picolinamide] | 0.001 µM | 0.001 µM
O=C1CC[C@@H](CCOc2cc3nc(C4CC4)cn3cc2NC(=O)c2cccc(C(F)F)n2)N1 [Example 73, (S)—N-(2-cyclopropyl-7-(2-(5-oxopyrrolidin-2-yl)ethoxy)imidazo[1,2-a]pyridin-6-yl)-6-(difluoromethyl)picolinamide] | 0.011 µM | 0.032 µM
CCOc1nc2nc(CC)cn2cc1NC(=O)c1cccc(C(F)F)n1 [Example 74, 6-(difluoromethyl)-N-(7-ethoxy-2-ethylimidazo[1,2-a]pyrimidin-6-yl)picolinamide] | 0.007 µM | 0.018 µM
CCOc1cc2nc(C3CN(C4COC4)C3)cn2cc1NC(=O)c1cccc(C(F)F)n1 [Example 79, 6-(difluoromethyl)-N-(7-ethoxy-2-(1-(oxetan-3-yl)azetidin-3-yl)imidazo[1,2-a]pyridin-6-yl)picolinamide] | 0.001 µM | 0.001 µM
CCOc1cc2nc(C3CN(CCOC)C3)cn2cc1NC(=O)c1cccc(C(F)F)n1 [Example 80, 6-(difluoromethyl)-N-(7-ethoxy-2-(1-(2-methoxyethyl)azetidin-3-yl)imidazo[1,2-a]pyridin-6-yl)picolinamide] | 0.002 µM | 0.005 µM
CCOc1cc2nc(C3CN(C(C)=O)C3)cn2cc1NC(=O)c1cccc(C(F)F)n1 [Example 81, N-(2-(1-acetylazetidin-3-yl)-7-ethoxyimidazo[1,2-a]pyridin-6-yl)-6-(difluoromethyl)picolinamide] | 0.001 µM | 0.001 µM
CCOc1cc2nc(Cn3cncn3)cn2cc1NC(=O)c1cccc(C(F)F)n1 [Example 82, N-(2-((1H-1,2,4-triazol-1-yl)methyl)-7-ethoxyimidazo[1,2-a]pyridin-6-yl)-6-(difluoromethyl)picolinamide] | 0.001 µM | 0.004 µM
CCOc1cc2nc(CC3COCCO3)cn2cc1NC(=O)c1cccc(C(F)F)n1 (stereo not shown) [Example 83, N-(2-((1,4-dioxan-2-yl)methyl)-7-ethoxyimidazo[1,2-a]pyridin-6-yl)-6-(difluoromethyl)picolinamide] | 0.001 µM | 0.005 µM
CCOc1cc2nc(Cc3ccn(C)n3)cn2cc1NC(=O)c1cccc(C(F)F)n1 [Example 84, 6-(difluoromethyl)-N-(7-ethoxy-2-((1-methyl-1H-pyrazol-3-yl)methyl)imidazo[1,2-a]pyridin-6-yl)picolinamide] | 0.082 µM | 0.015 µM
CCOc1cc2nc(CN3CCCC3=O)cn2cc1NC(=O)c1cccc(C(F)F)n1 [Example 85, 6-(difluoromethyl)-N-(7-ethoxy-2-((2-oxopyrrolidin-1-yl)methyl)imidazo[1,2-a]pyridin-6-yl)picolinamide] | 0.002 µM | 0.012 µM
CCOc1cc2nc(COc3ccccn3)cn2cc1NC(=O)c1cccc(C(F)F)n1 [Example 86, 6-(difluoromethyl)-N-(7-ethoxy-2-((pyridin-2-yloxy)methyl)imidazo[1,2-a]pyridin-6-yl)picolinamide] | 0.006 µM | 0.008 µM
CCOc1cc2nc(Cn3ccccc3=O)cn2cc1NC(=O)c1cccc(C(F)F)n1 [Example 87, 6-(difluoromethyl)-N-(7-ethoxy-2-((2-oxopyridin-1(2H)-yl)methyl)imidazo[1,2-a]pyridin-6-yl)picolinamide] | 0.004 µM | 0.017 µM
CCOc1cc2nc(CCCOC)cn2cc1NC(=O)c1ccn(C(F)F)n1 [Example 88, 1-(difluoromethyl)-N-(7-ethoxy-2-(3-methoxypropyl)imidazo[1,2-a]pyridin-6-yl)-1H-pyrazole-3-carboxamide] | 0.003 µM | 0.004 µM
CCOc1cc2nc(C3(O)CCOCC3)cn2cc1NC(=O)c1cccc(C(F)F)n1 [Example 90, 6-(difluoromethyl)-N-(7-ethoxy-2-(4-hydroxytetrahydro-2H-pyran-4-yl)imidazo[1,2-a]pyridin-6-yl)picolinamide] | 0.002 µM | 0.004 µM
CCOc1cc2nc(C3(OCC)CCOCC3)cn2cc1NC(=O)c1cccc(C(F)F)n1 [Example 91, 6-(difluoromethyl)-N-(7-ethoxy-2-(4-ethoxytetrahydro-2H-pyran-4-yl)imidazo[1,2-a]pyridin-6-yl)picolinamide] | 0.001 µM | 0.003 µM
CCOc1nc2nc(CC3CCOC3)cn2cc1NC(=O)c1cccc(C(F)(F)F)n1 (stereo not shown) [Example 93, N-(7-ethoxy-2-((tetrahydrofuran-3-yl)methyl)imidazo[1,2-a]pyrimidin-6-yl)-6-(trifluoromethyl)picolinamide] | 0.001 µM | 0.005 µM
CCOc1cc2nc([C@H]3C[C@H](O)C3)cn2cc1NC(=O)c1cccc(C(F)F)n1 [Example 96] | 0.001 µM | 0.001 µM
CCOc1cc2nc([C@H]3C[C@@H](O)C3)cn2cc1NC(=O)c1cccc(C(F)F)n1 [Example 97] | 0.002 µM | 0.002 µM
CCOc1cc2nc(C3(CO)CC3)cn2cc1NC(=O)c1cccc(C(F)F)n1 [Example 98, 6-(difluoromethyl)-N-(7-ethoxy-2-(1-(hydroxymethyl)cyclopropyl)imidazo[1,2-a]pyridin-6-yl)picolinamide] | 0.008 µM | 0.018 µM
CCOc1cc2nc(CC(F)CO)cn2cc1NC(=O)c1cccc(C(F)F)n1 (stereo not shown) [Example 99, 6-(difluoromethyl)-N-(7-ethoxy-2-(2-fluoro-3-hydroxypropyl)imidazo[1,2-a]pyridin-6-yl)picolinamide] | 0.002 µM | 0.004 µM
CCOc1cc2nc(C(C)(C)O)cn2cc1NC(=O)c1cccc(C(F)F)n1 [Example 100, 6-(difluoromethyl)-N-(7-ethoxy-2-(2-hydroxypropan-2-yl)imidazo[1,2-a]pyridin-6-yl)picolinamide] | 0.008 µM | 0.011 µM
COCCOc1cc2nc(C3CC3)cn2cc1NC(=O)c1cccc(C(F)F)n1 [Example 101, N-(2-cyclopropyl-7-(2-methoxyethoxy)imidazo[1,2-a]pyridin-6-yl)-6-(difluoromethyl)picolinamide] | 0.006 µM | 0.029 µM
CCOc1cc2nc(C(=O)N(C)C)cn2cc1NC(=O)c1cccc(C(F)F)n1 [Example 108, 6-(6-(difluoromethyl)picolinamido)-7-ethoxy-N,N-dimethylimidazo[1,2-a]pyridine-2-carboxamide] | 0.011 µM | 0.025 µM
CCOc1cc2nc(C(C)(F)F)cn2cc1NC(=O)c1cccc(C(F)F)n1 [Example 109, N-(2-(1,1-difluoroethyl)-7-ethoxyimidazo[1,2-a]pyridin-6-yl)-6-(difluoromethyl)picolinamide] | 0.002 µM | 0.003 µM
